Tests used:
Test in all cases: biochemical
Assay type in all cases: biochemical
panel of 391 kinases [1] = target: panel of 391 kinases (Homo sapiens, UniProt O00311); conditions: CDC7/DBF4, MK-28 1 µM, ATP 1 µM
panel of 391 kinases [2] = target: panel of 391 kinases (Homo sapiens, UniProt O94804); conditions: LOK/STK10, MK-28 1 µM, ATP 1 µM
panel of 391 kinases [3] = target: panel of 391 kinases (Homo sapiens, UniProt O95382); conditions: MEKK6, MK-28 1 µM, ATP 1 µM
panel of 391 kinases [4] = target: panel of 391 kinases (Homo sapiens, UniProt P32298); conditions: GRK4, MK-28 1 µM, ATP 1 µM
panel of 391 kinases [5] = target: panel of 391 kinases (Homo sapiens, UniProt P45985); conditions: MKK4, MK-28 1 µM, ATP 1 µM
panel of 391 kinases [6] = target: panel of 391 kinases (Homo sapiens, UniProt P46734); conditions: MEK3, MK-28 1 µM, ATP 1 µM
panel of 391 kinases [7] = target: panel of 391 kinases (Homo sapiens, UniProt P49137); conditions: MAPKAPK2, MK-28 1 µM, ATP 1 µM
panel of 391 kinases [8] = target: panel of 391 kinases (Homo sapiens, UniProt P51812); conditions: RSK2, MK-28 1 µM, ATP 1 µM
panel of 391 kinases [9] = target: panel of 391 kinases (Homo sapiens, UniProt P52564); conditions: MKK6, MK-28 1 µM, ATP 1 µM
panel of 391 kinases [10] = target: panel of 391 kinases (Homo sapiens, UniProt P53779); conditions: JNK3, MK-28 1 µM, ATP 1 µM
panel of 391 kinases [11] = target: panel of 391 kinases (Homo sapiens, UniProt P54753); conditions: EPHB3, MK-28 1 µM, ATP 1 µM
panel of 391 kinases [12] = target: panel of 391 kinases (Homo sapiens, UniProt P78368); conditions: CK1g2, MK-28 1 µM, ATP 1 µM
panel of 391 kinases [13] = target: panel of 391 kinases (Homo sapiens, UniProt Q05513); conditions: PKCzeta, MK-28 1 µM, ATP 1 µM
panel of 391 kinases [14] = target: panel of 391 kinases (Homo sapiens, UniProt Q12866); conditions: c-MER, MK-28 1 µM, ATP 1 µM
panel of 391 kinases [15] = target: panel of 391 kinases (Homo sapiens, UniProt Q13177); conditions: PAK2, MK-28 1 µM, ATP 1 µM
panel of 391 kinases [16] = target: panel of 391 kinases (Homo sapiens, UniProt Q15119); conditions: kinase PDK2/PDHK2, compound at 1 µM, single dose in duplicates, 1 µM ATP
panel of 391 kinases [17] = target: panel of 391 kinases (Homo sapiens, UniProt Q5VT25); conditions: MRCKa/CDC42BPA, MK-28 1 µM, ATP 1 µM
panel of 391 kinases [18] = target: panel of 391 kinases (Homo sapiens, UniProt Q6IQ55); conditions: TTBK2, MK-28 1 µM, ATP 1 µM
panel of 391 kinases [19] = target: panel of 391 kinases (Homo sapiens, UniProt Q6PHR2); conditions: ULK3, MK-28 1 µM, ATP 1 µM
panel of 391 kinases [20] = target: panel of 391 kinases (Homo sapiens, UniProt Q8IY84); conditions: NIM1, MK-28 1 µM, ATP 1 µM
panel of 391 kinases [21] = target: panel of 391 kinases (Homo sapiens, UniProt Q8N5S9); conditions: CAMKK1, MK-28 1 µM, ATP 1 µM
panel of 391 kinases [22] = target: panel of 391 kinases (Homo sapiens, UniProt Q8TDC3); conditions: BRSK1, MK-28 1 µM, ATP 1 µM
panel of 391 kinases [23] = target: panel of 391 kinases (Homo sapiens, UniProt Q92630); conditions: DYRK2, MK-28 1 µM, ATP 1 µM
panel of 391 kinases [24] = target: panel of 391 kinases (Homo sapiens, UniProt Q9NYY3); conditions: PLK2, MK-28 1 µM, ATP 1 µM
panel of 391 kinases [25] = target: panel of 391 kinases (Homo sapiens, UniProt Q9UEW8); conditions: STK39/STLK3, MK-28 1 µM, ATP 1 µM
panel of 391 kinases [26] = target: panel of 391 kinases (Homo sapiens, UniProt Q9UKI8); conditions: TLK1, MK-28 1 µM, ATP 1 µM
panel of 391 kinases [27] = target: panel of 391 kinases (Homo sapiens, UniProt Q9Y463); conditions: DYRK1B, MK-28 1 µM, ATP 1 µM
[28] = read-out: % Enzyme Activity (relative to DMSO controls)

CN(/N=C\c1ccc(O)c(O)c1)c1nc(-c2ccccc2)cc(-c2ccccc2)n1 [MK-28]
% Enzyme Activity (relative to DMSO controls) (panel of 391 kinases [1]): 105.60% | remaining activity at 1 µM (panel of 391 kinases [1]; [28]): 113% | % Enzyme Activity (relative to DMSO controls) (panel of 391 kinases [2]): 100.78% | remaining activity at 1 µM (panel of 391 kinases [2]; [28]): 101% | % Enzyme Activity (relative to DMSO controls) (panel of 391 kinases [3]): 101.22% | remaining activity at 1 µM (panel of 391 kinases [3]; [28]): 108% | % Enzyme Activity (relative to DMSO controls) (panel of 391 kinases [4]): 97.72% | remaining activity at 1 µM (panel of 391 kinases [4]; [28]): 99.2% | % Enzyme Activity (relative to DMSO controls) (panel of 391 kinases [5]): 102.88% | remaining activity at 1 µM (panel of 391 kinases [5]; [28]): 103% | % Enzyme Activity (relative to DMSO controls) (panel of 391 kinases [6]): 88.71% | remaining activity at 1 µM (panel of 391 kinases [6]; [28]): 96.2% | % Enzyme Activity (relative to DMSO controls) (panel of 391 kinases [7]): 93.81% | remaining activity at 1 µM (panel of 391 kinases [7]; [28]): 94% | % Enzyme Activity (relative to DMSO controls) (panel of 391 kinases [8]): 95.23% | remaining activity at 1 µM (panel of 391 kinases [8]; [28]): 99.7% | % Enzyme Activity (relative to DMSO controls) (panel of 391 kinases [9]): 94.11% | remaining activity at 1 µM (panel of 391 kinases [9]; [28]): 95.6% | % Enzyme Activity (relative to DMSO controls) (panel of 391 kinases [10]): 94.93% | remaining activity at 1 µM (panel of 391 kinases [10]; [28]): 99.6% | % Enzyme Activity (relative to DMSO controls) (panel of 391 kinases [11]): 97.56% | remaining activity at 1 µM (panel of 391 kinases [11]; [28]): 99.2% | % Enzyme Activity (relative to DMSO controls) (panel of 391 kinases [12]): 83.33% | remaining activity at 1 µM (panel of 391 kinases [12]; [28]): 87% | % Enzyme Activity (relative to DMSO controls) (panel of 391 kinases [13]): 100.19% | remaining activity at 1 µM (panel of 391 kinases [13]; [28]): 100% | % Enzyme Activity (relative to DMSO controls) (panel of 391 kinases [14]): 97.57% | remaining activity at 1 µM (panel of 391 kinases [14]; [28]): 98.6% | % Enzyme Activity (relative to DMSO controls) (panel of 391 kinases [15]): 99.51% | remaining activity at 1 µM (panel of 391 kinases [15]; [28]): 99.7% | % Enzyme Activity (relative to DMSO controls) (panel of 391 kinases [16]): 99.55% | remaining activity at 1 µM (panel of 391 kinases [16]; [28]): 103% | % Enzyme Activity (relative to DMSO controls) (panel of 391 kinases [17]): 93.74% | remaining activity at 1 µM (panel of 391 kinases [17]; [28]): 95.3% | % Enzyme Activity (relative to DMSO controls) (panel of 391 kinases [18]): 97.38% | remaining activity at 1 µM (panel of 391 kinases [18]; [28]): 98.9% | % Enzyme Activity (relative to DMSO controls) (panel of 391 kinases [19]): 97.75% | remaining activity at 1 µM (panel of 391 kinases [19]; [28]): 98.7% | % Enzyme Activity (relative to DMSO controls) (panel of 391 kinases [20]): 98.00% | remaining activity at 1 µM (panel of 391 kinases [20]; [28]): 104% | % Enzyme Activity (relative to DMSO controls) (panel of 391 kinases [21]): 101.88% | remaining activity at 1 µM (panel of 391 kinases [21]; [28]): 102% | % Enzyme Activity (relative to DMSO controls) (panel of 391 kinases [22]): 90.51% | remaining activity at 1 µM (panel of 391 kinases [22]; [28]): 92.8% | % Enzyme Activity (relative to DMSO controls) (panel of 391 kinases [23]): 100.55% | remaining activity at 1 µM (panel of 391 kinases [23]; [28]): 101% | % Enzyme Activity (relative to DMSO controls) (panel of 391 kinases [24]): 97.72% | remaining activity at 1 µM (panel of 391 kinases [24]; [28]): 98.5% | % Enzyme Activity (relative to DMSO controls) (panel of 391 kinases [25]): 106.05% | remaining activity at 1 µM (panel of 391 kinases [25]; [28]): 108% | % Enzyme Activity (relative to DMSO controls) (panel of 391 kinases [26]): 93.00% | remaining activity at 1 µM (panel of 391 kinases [26]; [28]): 96.5% | % Enzyme Activity (relative to DMSO controls) (panel of 391 kinases [27]): 88.09% | remaining activity at 1 µM (panel of 391 kinases [27]; [28]): 89.9%
